Experimental data published in US8536160B2, “Azaheterocyclyl derivatives of androstanes and androstenes as medicaments for cardiovascular disorders” (priority 2006, dated 2013).
Where a name gives a salt, the structure may show the parent alone. Read-outs that look alike come from different tables or passages of the source.

Assays:
fresh rat hepatocytes = experiment: Metabolism in fresh rat hepatocytes; conditions: for % of compound metabolized after 60 minutes: test item nominal concentration 45 μM, 2590000-3084000 hepatocytes/ml
anesthetized guinea-pig = experiment: Inotropic effect and lethal dose, slow intravenous infusion in anesthetized guinea-pig; type: in vivo; design: Maximum dose infused: unit not given here; conditions: for Emax / ED80 / ED (max): Cavia porcellus, iv, 1.5 h; for Emax: read-out: Emax % increase in +dP/dTmax; for ED80: read-out: ED80 (inotropic potency, dose increasing +dP/dTmax by 80%); for ED (max): read-out: EDmax (dose inducing maximum positive inotropic effect); for % decrease from Emax after 20 min from the end of the infusion: duration of the inotropic effect; for Maximum dose infused: maximum dose infused in the survived animals; for Lethal dose/ED80 (safety ratio): calculated for the died animals
[1] = target: Dog Kidney Na+, K+-ATPase (Canis lupus familiaris, UniProt P50997); experiment: Inhibition of the enzymatic activity of purified Na+,K+-ATPase (hydrolysis of 32P-ATP); type: biochemical
[2] = tested on: hypertensive ouabain-sensitive rats (OS rats); experiment: Systolic blood pressure fall in hypertensive ouabain-sensitive rats (OS rats); type: in vivo, rat; conditions: 10 μg/kg/day by mouth for four weeks
Method: The ability of these compounds to lower blood pressure was tested by using an animal model with induced hypertension, in particular, rats made hypertensive by chronic infusion of ouabain, according to Ferrari P., et al. J. Pharm. Exp. Ther. 1998, 285, 83-94.
The procedure adopted to test the antihypertensive activity of the compounds on the above mentioned model was the following: systolic blood pressure (SBP) and heart rate (HR) were measured by an indirect tailcuff method. The blood pressure lowering effect was measured in hypertensive ouabain-sensitive rats. The compound, suspended in Methocel 0.5% (w/v), was administered daily at the dose of 10 μg/kg/day by mouth for four weeks. SBP and HR were measured weekly 6 hours after the treatment. The comparison are ouabain sensitive rats (OS rats) and non hypertensive rats (control), both treated only with Methocel 0.5% (w/v). As shown in the following Table 4, treatment with a compound of the present invention lowers the blood pressure of OS rats (170 mm Hg) to almost the level of control rats (150 mm Hg).

[3] = slow i.v. infusion over 90 minutes, anesthetized guinea-pig, maximum increase in contractile force
[4] = slow i.v. infusion over 90 minutes, anesthetized guinea-pig
[5] = slow i.v. infusion over 90 minutes
[6] = dog kidney enzyme, hydrolysis of 32P-ATP in presence and absence of compound, read-out: Na+, K+-ATPase Inhibition IC50
[7] = read-out: Na+, K+-ATPase Inhibition IC50

Row | Structure (SMILES) | % of compound metabolized after 60 minutes (fresh rat hepatocytes) | Emax (anesthetized guinea-pig; [3]) | ED80 (anesthetized guinea-pig; [4]) | ED (max) (anesthetized guinea-pig; [4]) | % decrease from Emax after 20 min from the end of the infusion (anesthetized guinea-pig; anesthetized guinea-pig) | Dead/treated (anesthetized guinea-pig; [4]) | Maximum dose infused (anesthetized guinea-pig; [5]) | IC50 ([1]; Na+, K+-ATPase Inhibition IC50) | also measured
1 | C[C@]12CC[C@H]3[C@@H](CC[C@@]4(O)CC(=NO[C@@H]5CCNC5)CC[C@]34C)[C@@H]1CCC2=O (mixture of isomers) [I-am, (E,Z) 3-(3-(R)-Pyrrolidinyl)oxyimino-5α-hydroxyandrostane-17-one hemifumarate] | 12% | 221% | 3.87 µmol/kg | 15.3 µmol/kg | 100% | 0/3 | 25.2 | 210 nM | –
2 | C#CC1CC2C3CCC(=O)C3(C)CCC2C2(C)CCC(=NOC3CCNC3)CC12 (mixture of isomers) [I-bb, (E,Z) 3-[3′-(R)-Pyrrolidinyl]oxyimino-6α-ethynylandrostane-17-one hydrochloride] | – | 147% | 3.7 µmol/kg | 6.39 µmol/kg | 29% | 0/3 | 6.5 | 110 nM | –
3 | CC12CCC3C(CC(CCO)C4CC(=NOC5CCNC5)CCC43C)C1CCC2=O (mixture of isomers) [I-bc, (E,Z) 3-[3′-(R)-Pyrrolidinyl]oxyimino-6α-(2-hydroxyethyl)androstane-17-one hydrochloride] | – | 183% | 1.89 µmol/kg | 5.08 µmol/kg | 28% | 0/3 | 6.3 | – | IC50 [1, 6]: 58 nM
4 | C=C1C[C@H]2[C@@H]3CCC(=O)[C@@]3(C)CC[C@@H]2[C@@]2(C)CCC(=NO[C@@H]3CCNC3)C[C@]12O (mixture of isomers) [I-bh, (E,Z) 3-[3′-(R)-Pyrrolidinyl]oxyimino-5α-hydroxy-6-methylenandrostane-17-one hydrochloride] | – | 173% | 1.91 µmol/kg | 3.8 µmol/kg | 63% | 0/3 | 6.4 | 12 nM | –
5 | C[C@]12CC[C@H]3[C@@H](C/C(=N\O)[C@@]4(O)CC(=NO[C@@H]5CCNC5)CC[C@]34C)[C@@H]1CCC2=O (mixture of isomers) [I-bp, (E,Z) 3-[3-(R)-Pyrrolidinyl]oxyimino-5α-hydroxy-6-(E)-hydroxyiminoandrostane-17-one hydrochloride] | 8% | 226% | 0.37 µmol/kg | 1.8 µmol/kg | 100% | – | 4.3 | – | –
6 | CC12CCC3C(C(O)CC4CC(=NOC5CCNC5)CCC43C)C1CCC2=O (mixture of isomers) [I-cj, (E,Z) 3-[3′-(R)-Pyrrolidinyl]oxyimino-7α-hydroxyandrostane-17-one fumarate] | 20% | – | – | – | – | – | – | 220 nM | –
7 | CC1CC2CC(=NOC3CCNC3)CCC2(C)C2CCC3(C)C(=O)CCC3C12 (mixture of isomers) [I-cl, (E,Z) 3-[3′-(R)-Pyrrolidinyl]oxyimino-7β-methylandrostane-17-one hydrochloride] | – | 187% | 3.34 µmol/kg | 6.34 µmol/kg | 7% | 0/3 | 6.4 | 150 nM | –
8 | CC12CCC3C(C(=O)C(CO)C4CC(=NOC5CCNC5)CCC43C)C1CCC2=O (mixture of isomers) [I-cs, (E,Z) 3-[3′-(R)-Pyrrolidinyl]oxyimino-6α-hydroxymethylandrostane-7,17-dione fumarate] | 5% | – | – | – | – | – | – | – | IC50 ([1]; Na+, K+-ATPase Inhibition IC50, dog kidney enzyme, hydrolysis of 32P-ATP in presence and absence of compound): 13 nM
9 | C=C1C[C@@H]2[C@H](CC[C@]3(C)C(=O)CC[C@@H]23)[C@@]2(C)CC[C@@H](SC3CCNC3)CC12.O=C(O)/C=C/C(=O)O (mixture of isomers) [I-db, 3α-[3-(RS)-Pyrrolidinylthio]-6-methyleneandrostane-17-one fumarate] | 25% | – | – | – | – | – | – | – | HR beats/min. [2]: 387 beats/min.; HR % beats/min ([2]; change versus OS rats on vehicle): +6.6%; SBP mmHg ([2]; measured 6 hours after treatment, tail-cuff): 153.0 mmHg; SBP - % ([2]; versus OS rats on vehicle): 10.3%; SBP - mmHg (fall) ([2]; versus OS rats on vehicle): 17.0 mmHg; IC50 [1, 7]: 20000 nM
10 | C[C@]12CCC(=NOCCN)CC1C(=O)C[C@@H]1[C@@H]2CC[C@]2(C)C(=O)CC[C@@H]12.Cl (mixture of isomers) [compd 22b, (EZ) 3-(2-aminoethoxyimino)androstane-6,17-dione hydrochloride, reference compound] | 95% | 182% | 1.82 µmol/kg | 5.74 µmol/kg | 100% | 7/8 | 32.1 | – | metabolism in fresh rat hepatocytes within 60 minutes (in words) (fresh rat hepatocytes; 45 μM): almost completely metabolized; Lethal dose/ED80 (safety ratio) (anesthetized guinea-pig; anesthetized guinea-pig): 22.6
11 | CC12CCC3C(CC(O)C4CC(=NOC5CCNC5)CCC43C)C1CCC2=O (single isomer, unassigned) [I-an, hydrochloride] | 21% | – | – | – | – | – | – | 580 nM | –
12 | CON=C1CC2C3CCC(=O)C3(C)CCC2C2(C)CCC(=NOC3CCNC3)CC12 (single isomer, unassigned) [I-be] | 42% | – | – | – | – | – | – | 260 nM | –
13 | CON=C1CC2C3CCC(=O)C3(C)CCC2C2(C)CCC(=NOC3CCNC3)CC12O (single isomer, unassigned) [I-bw] | 24% | – | – | – | – | – | – | – | IC50 [1, 6]: 39 nM
14 | CC12CCC3C(C(O)C(CO)C4CC(=NOC5CCNC5)CCC43C)C1CCC2=O (single isomer, unassigned) [I-dk, hydrochloride] | 5% | – | – | – | – | – | – | 5.8 nM | –
15 | CC12CCC3C(CC(O)C4CC(=NOC5CCNC5)CCC43C)C1CCC2=O (single isomer, unassigned) [I-dp, hydrochloride] | – | 358% | 3.92 µmol/kg | 43.6 µmol/kg | – | 2/2 | 148 | 1200 nM | Lethal dose/ED80 (safety ratio) (anesthetized guinea-pig; anesthetized guinea-pig): 49
16 | C[C@]12CCC(=NO[C@@H]3CCNC3)C[C@@H]1[C@@H](C(N)=O)C[C@@H]1[C@@H]2CC[C@]2(C)C(=O)CC[C@@H]12.Cl [I-at, (Z,E) 3-(3-(R)-Pyrrolidinyloxyimino)-6α-carbamoylandrostane-17-one hydrochloride] | – | – | – | – | 16% | 0/4 | 25.0 | – | ED80 (inotropic potency, dose increasing +dP/dTmax by 80%) (anesthetized guinea-pig; [4]): 2.21 µmol/kg; EDmax (dose inducing maximum positive inotropic effect) (anesthetized guinea-pig; [4]): 8.82 µmol/kg; Emax % increase in +dP/dTmax (anesthetized guinea-pig; [3]): 109%; IC50 [1, 7]: 140 nM
17 | C=C1CC2C/C(=N/O[C@@H]3CCNC3)CC[C@]2(C)[C@H]2CC[C@]3(C)C(=O)CC[C@H]3[C@H]12.Cl (stereo partly drawn) [I-cg, (E,Z) 3-[3′-(R)-Pyrrolidinyl]oxyimino-7-methyleneandrostane-17-one hydrochloride] | 28% | – | – | – | – | – | – | – | IC50 [1, 7]: 240 nM
